# In patent US20260207777A1, “IMPROVED PEPTIDE INHIBITORS OF P53 BINDING PROTEIN 53BP1” (KAMAU THERAPEUTICS, INC., priority 2022, published 2026):
# Experiments:
# Type in all cases: cell-based, human
# CD34+ HSPCs [1] = assay: GFP knock-in at the HBA locus with purified i53 variants and HBA-UBC-GFP AAV; flow cytometry; settings: HBA locus; protein 0.4 mg/mL; MOIs 625 and 2500; both donors
# Text: (§1) Chemically-modified single guide RNAs (sgRNAs) were used to edit CD34+ HSPCs at the HBA, CCR5, and IL2RG loci. The sgRNA sequences were modified by adding 2′-O-methyl-3′-phosphorothioate at the three terminal nucleotides of the 5′ and 3′ ends. The target sequences for the HBA, CCR5, and IL2RG sgRNA are as follows: HBA: 5′-[…]-3′ (SEQ ID NO: 78), CCR5: 5′-[…]-3′ (SEQ ID NO: 79) IL2RG: 5′-[…]-3′ (SEQ ID NO: 80). Cas9 protein (SpyFi Cas9) was purchased from Aldevron. The RNPs were complexed at a Cas9:sgRNA molar ratio of 1:2.5 at 25° C. for 10-15 min prior to electroporation. Cells were collected, counted, and pelleted at 180 g×7 min. The cell pellets were resuspended in Maxcyte buffer with complexed RNPs and electroporated using a Maxcyte EXPERT ATx Nucleofector. After electroporation cells were plated at 3.5×10^5 cells/mL in media supplemented with cytokines and the desired AAV donor added at 5.0×10^2-2.5×10^4 vector genomes/cell. 24 h after nucleofection, cells were spun down, washed once with media, and seeded into AAV-free media at a density of 3.5×10^5 cells/mL. […]
# (§2) Rates of targeted integration of the HBA-UBC-GFP, CCR5-UBC-GFP, and IL2RG-UBC-GFP donors were measured using a Beckman Coulter CytoFLEX. […] Flow cytometry data were analyzed using FlowJo 10 software.
# CD34+ HSPCs [2] = assay: lentiviral-based pooled functional screen of i53 variant libraries at the HBB locus; NGS enrichment in mCherry+GFP+ vs mCherry+GFP- cells; settings: MOI=2500
# Description: CD34+ HSPC cells were transduced using lentivirus at MOIs of 0.25-1 at day 1 post thaw. Cells were concentrated using centrifugation (180 g×7 min), counted, and added at a concentration of 4×10^6 cells/mL to media containing lentivirus, cyclosporin A (5 μM, Sigma Aldrich) and Synperonic F108 (0.5 mg/mL, Sigma Aldrich). After 4 h of incubation, cells were spun down, washed once with media, and seeded into lentivirus-free media at a density of 3.5×10^5 cells/mL.
# Chemically-modified single guide RNAs (sgRNAs) used to edit CD34+ HSPCs at the HBB locus were purchased from Synthego. […] Cells were collected, counted, and pelleted at 180 g×7 min. […]
# Three days after transduction, cells were edited in triplicate or quadruplet at HBB as described above, using HBB-UBB-GFP donor AAV6 (MOI of 2.5×10^4 vector genomes/cell). […] The DNA concentration of each sample was measured using a Qubit 1×dsDNA BR assay kit (ThermoFisher).
# An amplicon sequencing workflow was designed to sequence and quantify i53 variants within starting and post selection pools. […]
# This approach was used to confirm sequence diversity in plasmid and lentiviral libraries prior to screening. For screening data analyses, a first quality control was performed on all runs to validate good values in number of mapped reads (>1e5 reads per sample), percent reads carried over from parent (from cloning), and overall distribution of sequences (no bias). […]
# CD34+ HSPCs [3] = assay: GFP knock-in at the CCR5 locus with purified i53 variants and CCR5-UBC-GFP AAV; flow cytometry; settings: CCR5 locus; protein 0.4 mg/mL; MOIs 625 and 2500; both donors
# Text: as §1, §2
# CD34+ HSPCs [4] = assay: GFP knock-in at the IL2RG locus with purified i53 variants and IL2RG-UBC-GFP AAV; flow cytometry; settings: protein 0.4 mg/mL, MOIs 625 and 2500, both donors
# Text: as §1, §2
# CD34+ HSPCs [5] = assay: editing of CD34+ HSPCs with purified i53 variant proteins and HBB-UBC-GFP AAV donor; flow cytometry; settings: HBB locus; protein 0.4 mg/mL; MOIs 625 and 2500; both donors
# Description: Chemically-modified single guide RNAs (sgRNAs) used to edit CD34+ HSPCs at the HBB locus were purchased from Synthego. The sgRNA sequences were modified by adding 2′-O-methyl-3′-phosphorothioate at the three terminal nucleotides of the 5′ and 3′ ends. The target sequence for the HBB sgRNA is as follows: HBB: 5′[…]-3′ (SEQ ID NO: 74). Cas9 protein (SpyFi Cas9) was purchased from Aldevron. The RNPs were complexed at a Cas9:sgRNA molar ratio of 1:2.5 at 25° C. for 10-15 min prior to electroporation. Cells were collected, counted, and pelleted at 180 g×7 min. The cell pellets were resuspended in Maxcyte buffer with complexed RNPs and electroporated using a Maxcyte EXPERT ATx Nucleofector. After electroporation cells were plated at 3.5×10^5 cells/mL in media supplemented with cytokines and the desired AAV donor added at 5.0×10^2-2.5×10^4 vector genomes/cell. 24 h after nucleofection, cells were spun down, washed once with media, and seeded into AAV-free media at a density of 3.5×10^5 cells/mL.
# CD34+ HPSCs were edited with protein variants 3 days post thaw and were harvested 2 days post nucleofection for NGS analysis or 3-5 days post nucleofection for GFP expression analysis. Editing reactions with proteins at a given concentration were repeated in duplicate or triplicate (either using the same CD34+ HSPC donor or across multiple donors).
# Rates of targeted integration of the HBB UBC GFP donor were measured using a Beckman Coulter CytoFLEX. DAPI (Miltenyi Biotec) was used to discriminate live and dead cells. Flow cytometry data were analyzed using FlowJo 10 software.
Substance,% GFP incorporation relative to the no protein control (CD34+ HSPCs [1]),"differential variant enrichment in the mCherry+GFP+ population relative to parent L67R (CD34+ HSPCs [2]; combinatorial library at positions 12 and 14, parent L67R)",% GFP incorporation relative to the no protein control (CD34+ HSPCs [3]),% GFP incorporation relative to the no protein control (CD34+ HSPCs [4]),% GFP incorporation relative to the no protein control (CD34+ HSPCs [5]),"differential variant enrichment in the mCherry+GFP+ population relative to parent L67H (CD34+ HSPCs [2]; combinatorial library at positions 12 and 14, iterating on L67H)"
T12Y.T14E.L67R: purified hit mutant of i53,increase % GFP incorporation relative to the no protein control,particularly beneficial to HDR levels at HBB relative to parent T12 T14 L67R,increase % GFP incorporation relative to the no protein control,increase % GFP incorporation relative to the no protein control,increase % GFP incorporation relative to the no protein control,–
T12V.T14H.L67H: purified hit mutant of i53,increase % GFP incorporation relative to the no protein control,–,increase % GFP incorporation relative to the no protein control,increase % GFP incorporation relative to the no protein control,increase % GFP incorporation relative to the no protein control,emerged as hits relative to parent L67H
